Assay results from PubChem BioAssay AID1259407 (Chemical Carcinogenesis Research Information System (CCRIS), 2018).
The source made the active and inactive calls. How the calls were made is not given here.

Test system: CCRIS mutagenicity, Ames/micronucleus/aberration tests
Assay: CCRIS mutagenicity studies

SMILES: CC(=O)Nc1ccc2c(c1)Cc1ccccc1-2
- mutagenic call (Test System: AMES SALMONELLA TYPHIMURIUM, Strain/Indicator: TA1537, Metabolic Activation: NONE, Method: STANDARD PLATE): inactive; negative
- mutagenic call (Test System: AMES SALMONELLA TYPHIMURIUM, Strain/Indicator: TA1537, Metabolic Activation: RAT, LIVER, S-9, AROCLOR 1254, Method: SPIRAL ASSAY): inactive; negative
- mutagenic call (Test System: AMES SALMONELLA TYPHIMURIUM, Strain/Indicator: TA1537, Metabolic Activation: RAT, LIVER, S-9, PHENOBARBITAL, Method: STANDARD PLATE): active; positive
- mutagenic call (Test System: AMES SALMONELLA TYPHIMURIUM, Strain/Indicator: TA1538, Metabolic Activation: NONE, Method: STANDARD PLATE): inactive; negative
- mutagenic call (Test System: AMES SALMONELLA TYPHIMURIUM, Strain/Indicator: TA1538, Metabolic Activation: RAT, LIVER, CYTOSOL, 2-ACETYLAMINOFLUORENE, Method: STANDARD PLATE): active; positive
- mutagenic call (Test System: AMES SALMONELLA TYPHIMURIUM, Strain/Indicator: TA1538, Metabolic Activation: RAT, LIVER, CYTOSOL, AROCLOR 1254, Method: STANDARD PLATE): active; positive
- mutagenic call (Test System: AMES SALMONELLA TYPHIMURIUM, Strain/Indicator: TA1538, Metabolic Activation: RAT, LIVER, CYTOSOL, Method: STANDARD PLATE): active; positive
- mutagenic call (Test System: AMES SALMONELLA TYPHIMURIUM, Strain/Indicator: TA1538, Metabolic Activation: RAT, LIVER, MICROSOMES, 2-ACETYLAMINOFLUORENE, Method: STANDARD PLATE): active; positive
- mutagenic call (Test System: AMES SALMONELLA TYPHIMURIUM, Strain/Indicator: TA1538, Metabolic Activation: RAT, LIVER, MICROSOMES, AROCLOR 1254, Method: STANDARD PLATE): active; positive
- mutagenic call (Test System: AMES SALMONELLA TYPHIMURIUM, Strain/Indicator: TA1538, Metabolic Activation: RAT, LIVER, MICROSOMES, Method: STANDARD PLATE): active; positive
- mutagenic call (Test System: AMES SALMONELLA TYPHIMURIUM, Strain/Indicator: TA1538, Metabolic Activation: RAT, LIVER, S-9, AROCLOR 1254, Method: STANDARD PLATE): active; positive
- mutagenic call (Test System: AMES SALMONELLA TYPHIMURIUM, Strain/Indicator: TA1538, Metabolic Activation: RAT, LIVER, S-9, KC500 OR PHENOBARBITAL, Method: LIQUID SUSPENSION): active; positive
- mutagenic call (Test System: AMES SALMONELLA TYPHIMURIUM, Strain/Indicator: TA1538, Metabolic Activation: RAT, LIVER, S-9, PHENOBARBITAL, Method: STANDARD PLATE): active; positive
- mutagenic call (Test System: AMES SALMONELLA TYPHIMURIUM, Strain/Indicator: YG1024, Metabolic Activation: HUMAN, HEPATOMA CELLS, BENZO[A]ANTHRACENE, Method: PREINCUBATION): active; positive
- mutagenic call (Test System: AMES SALMONELLA TYPHIMURIUM, Strain/Indicator: YG1024, Metabolic Activation: HUMAN, HEPATOMA CELLS, Method: PREINCUBATION): active; positive
- mutagenic call (Test System: AMES SALMONELLA TYPHIMURIUM, Strain/Indicator: YG1024, Metabolic Activation: RAT, LIVER, S-9, AROCLOR 1254, Method: PREINCUBATION): active; positive
- mutagenic call (Test System: AMES SALMONELLA TYPHIMURIUM, Strain/Indicator: YG1024, Metabolic Activation: RAT, LIVER, S-9, Method: PREINCUBATION): active; positive
- mutagenic call (Test System: CHINESE HAMSTER OVARY, Strain/Indicator: AS52/6-THIOGUANINE, Metabolic Activation: NONE): inactive; negative
- mutagenic call (Test System: CHINESE HAMSTER OVARY, Strain/Indicator: AS52/6-THIOGUANINE, Metabolic Activation: RAT LIVER S-9, 2-ACETYLAMINOFLUORENE): active; positive
- mutagenic call (Test System: CHINESE HAMSTER OVARY, Strain/Indicator: CHO-K1-BH4 (HGPRT), Metabolic Activation: RAT, LIVER, S-9, AROCLOR, Method: SUSPENSION/PLATE): active; positive
- mutagenic call (Test System: CHINESE HAMSTER V-79, Strain/Indicator: V-79/6-THIOGUANINE, Metabolic Activation: HAMSTER, LIVER, S-9, AROCLOR 1254, Method: SUSPENSION/PLATE): inactive; negative
- mutagenic call (Test System: CHINESE HAMSTER V-79, Strain/Indicator: V-79/6-THIOGUANINE, Metabolic Activation: NONE, Method: SUSPENSION/PLATE): inactive; negative
- mutagenic call (Test System: CHINESE HAMSTER V-79, Strain/Indicator: V-79/6-THIOGUANINE, Metabolic Activation: RAT, LIVER, S-9, PHENOBARBITAL AND BETA-NAPHTHOFLAVONE, Method: SUSPENSION/PLATE): inactive; negative
- mutagenic call (Test System: E. COLI, Strain/Indicator: WP2 UVRA, Metabolic Activation: HAMSTER, LIVER, S-9, Method: STANDARD PLATE): inactive; negative
- mutagenic call (Test System: E. COLI, Strain/Indicator: WP2 UVRA, Metabolic Activation: MOUSE, LIVER, S-9, Method: STANDARD PLATE): inactive; negative
- mutagenic call (Test System: E. COLI, Strain/Indicator: WP2 UVRA, Metabolic Activation: NONE, Method: STANDARD PLATE): inactive; negative
- mutagenic call (Test System: E. COLI, Strain/Indicator: WP2 UVRA, Metabolic Activation: RAT, LIVER, S-9, AROCLOR 1254, Method: STANDARD PLATE): inactive; negative
- mutagenic call (Test System: E. COLI, Strain/Indicator: WP2 UVRA, Metabolic Activation: RAT, LIVER, S-9, Method: STANDARD PLATE): inactive; negative
- mutagenic call (Test System: MOUSE LYMPHOMA, Strain/Indicator: L5178Y (TK+/TK-), Metabolic Activation: NONE, Method: SUSPENSION/PLATE): active; positive
- mutagenic call (Test System: MOUSE LYMPHOMA, Strain/Indicator: L5178Y (TK+/TK-), Metabolic Activation: RAT, LIVER, S-9, AROCLOR 1254, Method: SUSPENSION/PLATE): active; positive
- mutagenic call (Test System: MOUSE LYMPHOMA, Strain/Indicator: L5178Y (TK+/TK-), Metabolic Activation: RAT, LIVER, S-9, Method: SUSPENSION/PLATE): active; positive
- mutagenic call (Test System: UDS GUINEA PIG HEPATOCYTES, Strain/Indicator: THY INCORP, Metabolic Activation: NONE, Method: AUTORADIOGRAPHY): active; positive
- mutagenic call (Test System: UDS GUINEA PIG HEPATOCYTES, Strain/Indicator: THY INCORP, Metabolic Activation: NONE, Method: LIQUID SCINTILLATION COUNTING): active; positive
- mutagenic call (Test System: UDS HAMSTER HEPATOCYTES, Strain/Indicator: THY INCORP, Metabolic Activation: NONE, Method: LIQUID SCINTILLATION COUNTING): active; positive
- mutagenic call (Test System: UDS HUMAN FIBROBLASTS, Strain/Indicator: THY INCORP (NON-S-PHASE), Metabolic Activation: NONE, Method: AUTORADIOGRAPHY): active; positive
- mutagenic call (Test System: UDS HUMAN HEPATOCYTES, Strain/Indicator: THY INCORP, Metabolic Activation: NONE, Method: AUTORADIOGRAPHY): active; positive
- mutagenic call (Test System: UDS MONKEY HEPATOCYTES, Strain/Indicator: THY INCORP, Metabolic Activation: NONE, Method: AUTORADIOGRAPHY): inactive; negative
- mutagenic call (Test System: UDS MOUSE HEPATOCYTES, Strain/Indicator: THY INCORP, Metabolic Activation: NONE, Method: LIQUID SCINTILLATION COUNTING): inactive; negative
- mutagenic call (Test System: UDS RAT HEPATOCYTES, Strain/Indicator: BROMODEOXYURIDINE INCORP, Metabolic Activation: NONE, Method: FLOW CYTOMETRIC ANALYSIS): active; positive
- mutagenic call (Test System: UDS RAT HEPATOCYTES, Strain/Indicator: THY INCORP, Metabolic Activation: AROCLOR 1254, Method: AUTORADIOGRAPHY): active; positive
- mutagenic call (Test System: UDS RAT HEPATOCYTES, Strain/Indicator: THY INCORP, Metabolic Activation: NONE, Method: AUTORADIOGRAPHY): active; positive
- mutagenic call (Test System: UDS RAT HEPATOCYTES, Strain/Indicator: THY INCORP, Metabolic Activation: NONE, Method: AUTORADIOGRAPHY (SERUM-FREE MEDIA)): active; positive
- mutagenic call (Test System: UDS RAT HEPATOCYTES, Strain/Indicator: THY INCORP, Metabolic Activation: NONE, Method: IN VIVO): active; positive
- mutagenic call (Test System: UDS RAT HEPATOCYTES, Strain/Indicator: THY INCORP, Metabolic Activation: NONE, Method: LIQUID SCINTILLATION): active; positive
- mutagenic call (Test System: UDS RAT HEPATOCYTES, Strain/Indicator: THY INCORP, Metabolic Activation: NONE, Method: LIQUID SCINTILLATION COUNTING): active; positive
- mutagenic call (Test System: UDS RODENT HEPATOCYTES, Strain/Indicator: THY INCORP (NON-S-PHASE), Metabolic Activation: NONE, Method: AUTORADIOGRAPHY): active; positive
- mutagenic call (Test System: UDS RODENT HEPATOCYTES, Strain/Indicator: THY INCORP (NON-S-PHASE), Method: AUTORADIOGRAPHY): active; positive
- mutagenic call (Test System: UDS RODENT HEPATOCYTES, Strain/Indicator: THY INCORP (NON-S-PHASE), Method: LIQUID SCINTILLATION COUNTING): active; positive
- mutagenic call (Test System: UDS, Strain/Indicator: HEPG2/THYMIDINE INCORPORATION, Metabolic Activation: NONE, Method: AUTORADIOGRAPHY): active; positive
